“And” between values parts separate entries of the source, which are not always exact repeats. Equal values may be shown once. Toxic doses and inconclusive results are not listed. Rule as the data show it: active = T/C of 150% or more; inactive = T/C below 125%.
Tested on: L1210 leukemia ip in BDF1 mice, survival T/C
Experiment: NCI In Vivo Anticancer Drug Screen. Data for tumor model L1210 Leukemia (intraperitoneal) in B6D2F1 (BDF1) mice
Settings: endpoint: mean survival time, higher = longer survival
Outline: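 Transplanted-tumor mice were given test agent; controls received vehicle only. Survival readings from the two groups were divided (treated over control).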

[1] = dose: 100.0 mg/kg/injection, schedule: Q04DX003 (ip), vehicle: saline
[2] = dose: 200.0 mg/kg/injection, schedule: Q04DX003 (ip), vehicle: saline
[3] = dose: 400.0 mg/kg/injection, schedule: Q04DX003 (ip), vehicle: saline
[4] = dose: 100.0 mg/kg/injection, schedule: Q01DX009 (ip), vehicle: Klucel (hydroxypropylcellulose) (HPC)

Measured: T/C

CC(=O)[O][Hg][c]1sc2ccccc2c1C
inactive: dose: 0.5 mg/kg/injection, schedule: Q01DX015 (ip), vehicle: other 106 % of control | dose: 1.0 mg/kg/injection, schedule: Q01DX015 (ip), vehicle: other 98 % of control | dose: 1.5 mg/kg/injection, schedule: Q04DX003 (ip), vehicle: saline 103 % of control | dose: 2.0 mg/kg/injection, schedule: Q01DX015 (ip), vehicle: other 98 % of control | dose: 2.12 mg/kg/injection, schedule: Q01DX009 (ip), vehicle: saline with Tween-80 98 % of control | dose: 3.0 mg/kg/injection, schedule: Q01DX001 (ip), vehicle: acetone 101 % of control | dose: 3.0 mg/kg/injection, schedule: Q04DX003 (ip), vehicle: saline 95 % of control | dose: 4.0 mg/kg/injection, schedule: Q01DX015 (ip), vehicle: other 96 % of control | dose: 4.25 mg/kg/injection, schedule: Q01DX009 (ip), vehicle: saline with Tween-80 95 % of control | dose: 6.0 mg/kg/injection, schedule: Q01DX001 (ip), vehicle: acetone 95 % of control | dose: 6.0 mg/kg/injection, schedule: Q04DX003 (ip), vehicle: saline 98 % of control | dose: 8.5 mg/kg/injection, schedule: Q01DX009 (ip), vehicle: saline with Tween-80 98 % of control | dose: 8.5 mg/kg/injection, schedule: Q04DX003 (ip), vehicle: acetone 98 % of control | dose: 12.0 mg/kg/injection, schedule: Q01DX001 (ip), vehicle: acetone 86 % of control | dose: 12.0 mg/kg/injection, schedule: Q01DX009 (ip), vehicle: saline with Tween-80 95 % of control and 88 % of control | dose: 19.0 mg/kg/injection, schedule: Q01DX009 (ip), vehicle: saline with Tween-80 92 % of control | dose: 28.0 mg/kg/injection, schedule: Q01DX009 (ip), vehicle: saline with Tween-80 106 % of control

OC(COc1ccc(Cl)cc1)COc1ccc(Cl)cc1
inactive: dose: 100.0 mg/kg/injection, schedule: Q01DX001 (ip), vehicle: saline with Tween-80 95 % of control | dose: 100.0 mg/kg/injection, schedule: Q01DX009 (ip), vehicle: saline with Tween-80 97 % of control | dose: 100.0 mg/kg/injection, schedule: Q04DX003 (ip), vehicle: saline with Tween-80 98 % of control | dose: 200.0 mg/kg/injection, schedule: Q01DX009 (ip), vehicle: saline with Tween-80 98 % of control | dose: 200.0 mg/kg/injection, schedule: Q04DX003 (ip), vehicle: saline with Tween-80 103 % of control | dose: 400.0 mg/kg/injection, schedule: Q01DX009 (ip), vehicle: saline with Tween-80 101 % of control | dose: 400.0 mg/kg/injection, schedule: Q04DX003 (ip), vehicle: saline with Tween-80 95 % of control

O=c1oc2c(Cl)cc(Cl)cc2cc1-c1nc2ccccc2[nH]1
inactive: dose: 100.0 mg/kg/injection, schedule: Q04DX002 (ip), vehicle: saline with Tween-80 100 % of control | dose: 200.0 mg/kg/injection, schedule: Q04DX002 (ip), vehicle: saline with Tween-80 93 % of control | dose: 400.0 mg/kg/injection, schedule: Q04DX002 (ip), vehicle: saline with Tween-80 96 % of control

CCCCOCCOc1ccc(C(=O)OC)cc1
inactive: dose: 100.0 mg/kg/injection, schedule: Q04DX003 (ip), vehicle: saline sonified 101 % of control | dose: 200.0 mg/kg/injection, schedule: Q04DX003 (ip), vehicle: saline sonified 111 % of control | dose: 400.0 mg/kg/injection, schedule: Q04DX003 (ip), vehicle: saline sonified 101 % of control

COc1ccc(C2CC(O)C3CCC2C3)cc1 (centres undefined)
inactive: dose: 100.0 mg/kg/injection, schedule: Q04DX002 (ip), vehicle: Klucel (hydroxypropylcellulose) (HPC) 93 % of control | dose: 200.0 mg/kg/injection, schedule: Q04DX002 (ip), vehicle: Klucel (hydroxypropylcellulose) (HPC) 97 % of control | dose: 400.0 mg/kg/injection, schedule: Q04DX002 (ip), vehicle: Klucel (hydroxypropylcellulose) (HPC) 93 % of control

CCCCCCCC(=O)NOS(=O)(=O)O
inactive: dose: 25.0 mg/kg/injection, schedule: Q01DX001 (ip), vehicle: saline 101 % of control | dose: 25.0 mg/kg/injection, schedule: Q01DX009 (ip), vehicle: saline 91 % of control | dose: 25.0 mg/kg/injection, schedule: Q04DX003 (ip), vehicle: saline 100 % of control | dose: 50.0 mg/kg/injection, schedule: Q01DX001 (ip), vehicle: saline 97 % of control | dose: 50.0 mg/kg/injection, schedule: Q01DX009 (ip), vehicle: saline 88 % of control | dose: 50.0 mg/kg/injection, schedule: Q04DX003 (ip), vehicle: saline 95 % of control | [1] 95 % of control

COc1ccccc1OC
inactive: [1] 97 % of control | [2] 103 % of control | [3] 86 % of control

CCC(=O)c1cc(Cl)ccc1O
inactive: dose: 100.0 mg/kg/injection, schedule: Q01DX009 (ip), vehicle: other 100 % of control | dose: 200.0 mg/kg/injection, schedule: Q01DX009 (ip), vehicle: other 104 % of control | dose: 400.0 mg/kg/injection, schedule: Q01DX009 (ip), vehicle: other 102 % of control

FC(F)(F)c1ccc2c(c1)C1c3ccccc3C2c2ccccc21
inactive: dose: 100.0 mg/kg/injection, schedule: Q01DX009 (ip), vehicle: saline 98 % of control | [1] 100 % of control | dose: 200.0 mg/kg/injection, schedule: Q01DX009 (ip), vehicle: saline 100 % of control | [2] 98 % of control | dose: 400.0 mg/kg/injection, schedule: Q01DX009 (ip), vehicle: saline 91 % of control | [3] 100 % of control

c1ccc2nc(CCC3CCCCN3)ccc2c1 (centres undefined)
inactive: dose: 333.0 mg/kg/injection, schedule: Q01DX Z (ip), vehicle: methylcellulose (MC) 101 % of control

CC(NC(=O)NCCCl)c1ccsc1 (centres undefined)
inactive: dose: 2.5 mg/kg/injection, schedule: Q01DX009 (ip), vehicle: Klucel (hydroxypropylcellulose) (HPC) 111 % of control | dose: 5.0 mg/kg/injection, schedule: Q01DX009 (ip), vehicle: Klucel (hydroxypropylcellulose) (HPC) 98 % of control | dose: 10.0 mg/kg/injection, schedule: Q01DX009 (ip), vehicle: Klucel (hydroxypropylcellulose) (HPC) 94 % of control and 92 % of control

CCc1cc(C)cc(CC)c1N
inactive: [4] 104 % of control | dose: 200.0 mg/kg/injection, schedule: Q01DX009 (ip), vehicle: Klucel (hydroxypropylcellulose) (HPC) 90 % of control

C1=Cc2ccccc2C(c2ccccc2)S1 (centres undefined)
inactive: dose: 100.0 mg/kg/injection, schedule: Q04DX002 (ip), vehicle: saline 103 % of control | dose: 200.0 mg/kg/injection, schedule: Q04DX002 (ip), vehicle: saline 98 % of control | dose: 400.0 mg/kg/injection, schedule: Q04DX002 (ip), vehicle: saline 103 % of control

O=C(NCCc1ccccc1)Nc1ccccc1
inactive: dose: 75.0 mg/kg/injection, schedule: Q01DX009 (ip), vehicle: saline with Tween-80 100 % of control | dose: 75.0 mg/kg/injection, schedule: Q04DX003 (ip), vehicle: saline with Tween-80 92 % of control | dose: 150.0 mg/kg/injection, schedule: Q01DX009 (ip), vehicle: saline with Tween-80 90 % of control | dose: 150.0 mg/kg/injection, schedule: Q04DX003 (ip), vehicle: saline with Tween-80 91 % of control | dose: 300.0 mg/kg/injection, schedule: Q01DX009 (ip), vehicle: saline with Tween-80 88 % of control | dose: 300.0 mg/kg/injection, schedule: Q04DX003 (ip), vehicle: saline with Tween-80 89 % of control

CCCCC(CC)NC(=O)c1ccc(OC)cc1 (centres undefined)
inactive: dose: 12.5 mg/kg/injection, schedule: Q01DX009 (ip), vehicle: Klucel (hydroxypropylcellulose) (HPC) 106 % of control | dose: 25.0 mg/kg/injection, schedule: Q01DX009 (ip), vehicle: Klucel (hydroxypropylcellulose) (HPC) 101 % of control | dose: 25.0 mg/kg/injection, schedule: Q04DX003 (ip), vehicle: Klucel (hydroxypropylcellulose) (HPC) 105 % of control | dose: 50.0 mg/kg/injection, schedule: Q01DX009 (ip), vehicle: Klucel (hydroxypropylcellulose) (HPC) 95 % of control | dose: 50.0 mg/kg/injection, schedule: Q04DX003 (ip), vehicle: Klucel (hydroxypropylcellulose) (HPC) 103 % of control | [4] 101 % of control | dose: 100.0 mg/kg/injection, schedule: Q04DX003 (ip), vehicle: Klucel (hydroxypropylcellulose) (HPC) 100 % of control | dose: 200.0 mg/kg/injection, schedule: Q04DX003 (ip), vehicle: Klucel (hydroxypropylcellulose) (HPC) 103 % of control | dose: 400.0 mg/kg/injection, schedule: Q04DX003 (ip), vehicle: Klucel (hydroxypropylcellulose) (HPC) 100 % of control

CCCCN(C)N=Nc1ccc(C(N)=O)cc1
inactive: dose: 20.0 mg/kg/injection, schedule: Q01DX Z (ip), vehicle: carboxymethylcellulose (CMC) 98 % of control | dose: 40.0 mg/kg/injection, schedule: Q01DX Z (ip), vehicle: carboxymethylcellulose (CMC) 101 % of control | dose: 60.0 mg/kg/injection, schedule: Q01DX Z (ip), vehicle: carboxymethylcellulose (CMC) 104 % of control

Source: PubChem BioAssay AID248 (DTP/NCI, 2004)
